According to US10647690B2, “2,3-epoxy succinyl derivative, preparation method and use thereof” (Institute of Pharmacology and Toxicology Academy of …, priority 2016, dated 2020):
Like-named read-outs stand apart in the source and are kept apart here.

Legend:
Format in all cases: biochemical
Cathepsin K = molecular target: T1, Cathepsin K (Homo sapiens, UniProt P43235); experiment: IC50 determination against Cathepsin K (Biovision kit K150-100); conditions: CTSK
T1 construct: purchased Biovision K150-100
T1 sequence (P43235 115-329): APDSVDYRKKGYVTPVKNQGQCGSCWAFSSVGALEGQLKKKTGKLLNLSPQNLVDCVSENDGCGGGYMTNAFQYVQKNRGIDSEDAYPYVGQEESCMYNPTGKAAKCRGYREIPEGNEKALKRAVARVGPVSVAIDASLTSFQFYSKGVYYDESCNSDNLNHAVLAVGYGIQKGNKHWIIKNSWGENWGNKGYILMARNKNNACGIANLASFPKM
Experimental: (§1) 2. Method for determining IC50 of compounds against cathepsin:
IC50 of compounds against Cathepsin K was determined by using Cathepsin K Inhibitor Screening Kit (Product No. K150-100) from Biovision Company;
2.1.1.1 Preparation of Cathepsin K solution: Cathepsin K enzyme (23 μl) and Cathepsin K reagent (46 μl) were added to Cathepsin K buffer (2231 μl), and mixed well, to prepare Cathepsin K enzyme solution with a volume of 2.3 ml, which was placed on ice for further use.
(§2) 2.1.2 Preparation of compound solutions: 30 mM and 10 mM compound stock solutions, and control compounds were gradiently diluted in DMSO at a ratio of 1:3, wherein the maximum dilution fold was 19683; the gradiently diluted compound solution (3 μl) was added to Cathepsin K, B, L, and S buffer (27 μl), respectively, and mixed well, wherein the control compounds (FF-FMK, F-F-FMK, FF-FMK and Z-FF-FMK) were at the concentrations of 66.67, 22.22, 7.41, 2.47, 0.82, 0.27, 0.091, 0.03, 0.01, 0.0034 and 0 μM, respectively, the test compounds were at the concentrations of 1000, 333.3, 111.1, 37, 12.3, 4.1, 1.4, 0.46, 0.15, 0.05 and 0 μM, respectively, and the final concentration of DMSO was 10%.
2.1.3.1 Cathepsin K: Cathepsin K substrate (90 μl) was added to Cathepsin K buffer (1710 μl), and mixed well, to prepare Cathepsin K substrate solution with a volume of 1.8 ml, which was placed on ice for further use.
(§3) Method for screening cathepsin inhibitors: the cathepsin solution (prepared in Item 2.1.1) was added to a 384-well plate (ProxiPlate-384 Plus, Perkinelmer) at 10 μl/well, and centrifuged at 1000 rpm for Imin; the compound solution (prepared in Item 2.1.2) was then added at 2 μl/well, and every concentration was repeated in two wells; the final concentrations of the test compounds were 100, 33.3, 11.1, 3.7, 1.23, 0.41, 0.14, 0.046, 0.015, 0.005 and 0 μM, respectively, wherein the final concentration of DMSO was 1%; after centrifugation at 1000 rpm for 1 min, the plate was put in a 25° C. incubator for 15 min; the cathepsin substrate solution was then added at 8 µl/well, and centrifuged at 1000 rpm for 1 min; and finally, the fluorescence signal was read in Enspire, wherein the exciting light was at a wavelength of 400 nm, the emitting light was at a wavelength of 505 nm, and continuous reading was performed at 37° C. for 120 min.
(§4) Data analysis: the slope (S) for all the samples was calculated by ΔRFU(RFU2−RFU1) and time ΔT(T2−T1), including negative control (Enzyme Control, EC) and positive control (Inhibitor Control, IC: 10 μM (FF-FMK, F-F-FMK, FF-FMK and Z-FF-FMK), and the calculation formula was as followed: Relative inhibition rate %=(SEC−SS)/(SEC−SIC)*100. The IC50 for each compound was obtained by means of fitting by software GraphPad Prism 5.0.

Cathepsin B = molecular target: T2, Cathepsin B (Homo sapiens, UniProt P07858); experiment: IC50 determination against Cathepsin B (Biovision kit K147-100)
T2 construct: purchased Biovision K147-100
Experimental: as §1
IC50 of compounds against Cathepsin B was determined by using Cathepsin B Inhibitor Screening Kit (Product No. K147-100) from Biovision Company;
2.1.1.2 Preparation of Cathepsin B solution: Cathepsin B enzyme (23 μl) and Cathepsin B reagent (46 μl) were added to Cathepsin B buffer (2231 μl), and mixed well, to prepare Cathepsin B enzyme solution with a volume of 2.3 ml, which was placed on ice for further use.
as §2
2.1.3.2 Cathepsin B: Cathepsin B substrate (90 μl) was added to Cathepsin B buffer (1710 μl), and mixed well, to prepare Cathepsin B substrate solution with a volume of 1.8 ml, which was placed on ice for further use.
as §3, §4

Cathepsin L = molecular target: T3, Cathepsin L (Homo sapiens, UniProt P07711); experiment: IC50 determination against Cathepsin L (Biovision kit K161-100); conditions: CTSL
T3 construct: purchased Biovision K161-100
Experimental: as §1
IC50 of compounds against Cathepsin L was determined by using Cathepsin L Inhibitor Screening Kit (Product No. K161-100) from Biovision Company;
2.1.1.3 Preparation of Cathepsin L solution: Cathepsin L reagent (3 μl) was added to Cathepsin L enzyme (3 μl), mixed well, and on standing for 1 h, to get 1 mU/μl Cathepsin L enzyme solution. Cathepsin L buffer (24 μl) was added to 1 mU/μl cathepsin L enzyme solution (6 μl), to get 0.2 mU/μl Cathepsin L enzyme solution. 0.2 mU/μl cathepsin L enzyme (23 μl), and DTT (46 μl) were added to Cathepsin L buffer (2231 μl), and mixed well, to prepare Cathepsin L enzyme solution with a volume of 2.3 ml, which was placed on ice for further use.
as §2
2.1.3.3 Cathepsin L: Cathepsin L substrate (45 μl) was added to Cathepsin L buffer (1755 μl), and mixed well, to prepare Cathepsin L substrate solution with a volume of 1.8 ml, which was placed on ice for further use.
as §3, §4

Cathepsin S = molecular target: T4, Cathepsin S (Homo sapiens, UniProt P25774); experiment: IC50 determination against Cathepsin S (Biovision kit K149-100); conditions: CTSS
T4 construct: purchased Biovision K149-100
Experimental: as §1
IC50 of compounds against Cathepsin S was determined by using Cathepsin S Inhibitor Screening Kit (Product No. K149-100) from Biovision Company.
2.1.1.4 Preparation of Cathepsin S solution: Cathepsin S enzyme (46 μl) was added to Cathepsin S buffer (2254 μl), and mixed well, to prepare Cathepsin S enzyme solution with a volume of 2.3 ml, which was placed on ice for further use.
as §2
2.1.3.4 Cathepsin S: Cathepsin S substrate (90 μl) was added to Cathepsin S buffer (1710 μl), and mixed well, to prepare Cathepsin S substrate solution with a volume of 1.8 ml, which was placed on ice for further use.
as §3, §4

[1] = Exp-1, read-out: IC50 (nM) Exp-1
[2] = Exp-2, read-out: IC50 (nM) Exp-2
[3] = average of Exp-1 and Exp-2, read-out: Ave of IC50

T4 sequence (P25774 115-331): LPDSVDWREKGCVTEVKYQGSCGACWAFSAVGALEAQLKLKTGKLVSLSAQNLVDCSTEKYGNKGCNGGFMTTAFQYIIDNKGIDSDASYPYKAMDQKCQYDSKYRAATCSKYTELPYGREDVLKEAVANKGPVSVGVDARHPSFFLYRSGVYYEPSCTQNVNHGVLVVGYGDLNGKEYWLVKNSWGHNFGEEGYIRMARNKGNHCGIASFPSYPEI
T3 sequence (P07711 114-333): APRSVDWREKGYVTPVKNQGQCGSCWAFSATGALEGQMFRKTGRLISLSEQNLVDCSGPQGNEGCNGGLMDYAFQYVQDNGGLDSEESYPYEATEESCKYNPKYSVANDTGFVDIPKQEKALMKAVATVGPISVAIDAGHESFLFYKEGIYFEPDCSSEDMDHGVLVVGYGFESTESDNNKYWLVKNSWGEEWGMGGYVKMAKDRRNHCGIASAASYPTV

`CCOC(=O)[C@H]1O[C@@H]1C(=O)N[C@@H](CCSC)C(=O)NCCc1cccc(F)c1` [Compound 34, (2s, 3s)-2-ethoxycarbonyl-3-[2-[(s)-4-methylthio-1-carbonyl-1-(3-fluorophenylethylamino)butane]formylamino]epoxysuccinic acid] was tested, and the IC50 (Cathepsin K; [1]) was 586 nM, the IC50 (Cathepsin K; [2]) was 448 nM and the IC50 (Cathepsin K; [3]) was 517 nM. For the same compound, the IC50 (Cathepsin B; CTSB, Exp-1, read-out: IC50 (nM) Exp-1) was 22.3 nM, the IC50 (Cathepsin B; CTSB, Exp-2, read-out: IC50 (nM) Exp-2) was 25.9 nM and the IC50 (Cathepsin B; CTSB, average of Exp-1 and Exp-2, read-out: Ave of IC50) was 24.1 nM. For the same compound, the IC50 (Cathepsin B; Table 3, average ± STDEV, read-out: Cathepsin B IC50) was 24.1 ± 2.59 nM, the “Selectiviy vs Cathepsin K (fold)” value (Cathepsin B; selectivity for Cathepsin B over Cathepsin K) was 21 fold and the “Selectiviy vs Cathepsin S (fold)” value (Cathepsin B; selectivity for Cathepsin B over Cathepsin S) was 167 fold. The “selectivity for Cathepsin B” value (Cathepsin B; statement in words, versus Cathepsin K, L, S) was “strong selectivity for Cathepsin B”, the IC50 (Cathepsin L; [1]) was 338 nM and the IC50 (Cathepsin L; [2]) was 382 nM. For the same compound, the IC50 (Cathepsin L; [3]) was 360 nM, the IC50 (Cathepsin S; [1]) was 1600 nM and the IC50 (Cathepsin S; [2]) was 1660 nM. The IC50 (Cathepsin S; [3]) was 1630 nM.
